Strand notation (5' to 3'): a small letter for the sugar, then the base; units joined by * are phosphorothioate-linked, units joined directly phosphodiester-linked; [ ] holds rarer units or linkages, { } end groups; capitals alone tell only the bases. e = 2'-O-(2-methoxyethyl) (MOE); [5mC] = 5-methylcytosine; d = 2'-deoxy (DNA)

Details of series [1]: species or system Sprague-Dawley rats. The following applies: rat, in vivo, sc, 20 mg/kg. The method, then:
The concentration of the full-length oligonucleotide as well as the total oligonucleotide concentration (including the degraded form) was measured. The method used is a modification of previously published methods (Leeds et al., 1996; Geary et al., 1999) which consist of a phenol-chloroform (liquid-liquid) extraction followed by a solid phase extraction. An internal standard (ISIS 355868, a 27-mer 2′-O-methoxyethyl modified phosphorothioate oligonucleotide, […], designated herein as SEQ ID NO: 270) was added prior to extraction. […] The results are presented in Tables 91 and 92, expressed as μg/g liver or kidney tissue. Half-lives were then calculated using WinNonlin software ([…]).

Another series relates to Factor 11 activity. Description: Factor 11 protein activity, F11 assay based on clotting time (Example 45). The following applies: escalating dose regimen. The series is classed as in vivo, cynomolgus monkeys. How it is done:
(§1) Groups, each consisting of two male and three female monkeys, were injected subcutaneously with ISIS 416838, ISIS 416850, ISIS 416858, ISIS 416864, or ISIS 417002 in escalating doses. Antisense oligonucleotide was administered to the monkeys at 5 mg/kg three times per a week for week 1; 5 mg/kg twice per week for weeks 2 and 3; 10 mg/kg three times per week for week 4; 10 mg/kg twice per week for weeks 5 and 6; 25 mg/kg three times per week for week 7; and 25 mg/kg twice per week for weeks 8, 9, 10, 11, and 12. One control group, consisting of two male and three female monkeys, was injected subcutaneously with PBS according to the same dosing regimen. An additional experimental group, consisting of two male and three female monkeys, was injected subcutaneously with ISIS 416850 in a chronic, lower dose regimen. Antisense oligonucleotide was administered to the monkeys at 5 mg/kg three times per week for week 1; 5 mg/kg twice per week for week 2 and 3; 10 mg/kg three times per week for week 4; and 10 mg/kg twice per week for weeks 5 to 12. Body weights were measured weekly. Blood samples were collected 14 days and 5 days before the start of treatment and subsequently once per week for Factor 11 protein activity analysis in plasma, fibrinogen measurement, PT and aPTT measurements, bleeding times, and measurement of various hematologic factors. On day 85, the monkeys were euthanized by exsanguination while under deep anesthesia, and organs harvested for further analysis.
Blood samples were collected at various time points and Factor 11 proenzyme was measured using a F11 assay based on clotting time. Clotting times were determined in duplicate with a ST4 semi-automated coagulation instrument (Diagnostica Stago, NJ). Thirty μl of citrated sample plasma diluted 1/20 in HEPES-NaCl buffer with BSA was incubated with 30 μl aPTT reagent (Automated aPTT, Organon Technika, NC) and 30 μl of citrated plasma deficient of Factor 11 (George King Bio-Medical Inc.) at 37° C. for 5 min, followed by the addition of 30 μl of 25 mM CaCl2) to initiate clotting. Results were interpolated on a standard curve of serially diluted citrated control plasma.
Results are presented in Table 118 as percent inhibition of Factor 11 activity, relative to PBS control. The ISIS oligonucleotide, ISIS 416850, given with the chronic dose regimen is distinguished from the other oligonucleotides with an asterisk (*).

Series [2] can be described thus: Tolerability in Sprague-Dawley rats: hematology assays (Example 35). The settings on record: 50 mg/kg s.c. twice per week for 6 weeks.
The nature of series [3]: Liver function, ALT, AST, bilirubin in cynomolgus monkeys (Example 45). The series is classed as in vivo. The settings on record: plasma, escalating dose regimen. The method, then: as §1
The ISIS oligonucleotide, ISIS 416850, given with the chronic dose regimen is distinguished from the other oligonucleotides with an asterisk (*).

Another series relates to platelet aggregation. Kind of series: Platelet aggregation assay, ADP and/or collagen (Example 45). Format: in vivo, cynomolgus monkeys. The settings on record: escalating dose regimen. The method, then: as §1
Platelet aggregation was initiated by adding 1 mmol/L ADP and/or 3 μg collagen (depending on the collection day, as outlined in Table 121) to plasma samples, and was allowed to proceed for 10 minutes. Aggregation was characterized by recording the change in the electrical resistance or impedance and the change in the initial slope of aggregation after platelet shape change. The aggregation test was performed twice per sample on each collection day and the average value was taken. The ISIS oligonucleotide, ISIS 416850, given with the chronic dose regimen is distinguished from the other oligonucleotides with an asterisk (*).

A short description of series [4]: Tolerability in CD1 mice: liver function (Example 41). The following applies: 50 mg/kg s.c. twice per week for 6 weeks, plasma.
The nature of series [5]: Tolerability in CD1 mice: body weight and organ weight (Example 43). Format: in vivo. The settings on record: 50 mg/kg s.c. twice per week for 6 weeks, end of study.

Consider “412223 (antisense ACAGTTTCTGGCAGGCCTCG; 5-10-5 MOE gapmer, further chemistry not given here) [compound 412223]”, for which the “Half-life of ISIS oligonucleotides in the liver and kidney” value (“Half-life of ISIS oligonucleotides” below) in series [1] is on record as 22 days.

Turning to “412224 (antisense GCATTGGTGCACAGTTTCTG; 5-10-5 MOE gapmer, further chemistry not given here) [compound 412224]”, the “Half-life of ISIS oligonucleotides” value in series [1] is 17 days.

For the substance “412225 (antisense GCAGCGGACGGCATTGGTGC; 5-10-5 MOE gapmer, further chemistry not given here) [compound 412225]”, the “Half-life of ISIS oligonucleotides” value in series [1] amounted to 21 days.

Take “413482 (antisense GGACGGCATTGGTGCACAGT; 5-10-5 MOE gapmer, further chemistry not given here) [compound 413482]”: in series [1], the “Half-life of ISIS oligonucleotides” value was 20 days.

Turning to “416856 (antisense GGCATTGGTGCACAGTTTCT; 5-10-5 gapmer, further chemistry not given here) [compound 416856]”, in series [1], the “Half-life of ISIS oligonucleotides” value was 19 days.

Consider “ISIS 417002: MOE gapmer, nucleobases 1275 to 1318 of SEQ ID NO: 1 (Table 8) (antisense GGTGCACAGTTTCTGGCAGG; MOE gapmer, wing and gap sizes not given here)”, for which the “percent inhibition of Factor 11 activity, relative to PBS control” value (“percent inhibition … relative to PBS control” below) with Factor 11 activity (day 8) is 0%; in the series with Factor 11 activity (day 15), 4%; with Factor 11 activity (day 22), 2%; with Factor 11 activity (day 29), 8%; in the series with Factor 11 activity (day 36), 8%; in the series on Factor 11 activity (day 43), 9%. In addition, the “percent inhibition … relative to PBS control” value was 13% with Factor 11 activity (day 50); 24% in the series with Factor 11 activity (day 57); 26% with Factor 11 activity (day 64); 30% in the series on Factor 11 activity (day 71); 22% in the series with Factor 11 activity (day 78); 23% with Factor 11 activity (day 85). The “percent inhibition … relative to PBS control” value with Factor 11 activity (day −5) and with Factor 11 activity (day −14) was 0% throughout. The Platelets in series [2] is listed as 7 10^3/μL. In addition, in series [2], the RBC was found to be 5. This substance also registered a WBC in series [2] of 23 nL⁻¹. The lymphocytes in series [2] is given as 4%. Besides, in series [2], the monocytes is listed as 25%. In addition, the neutrophils in series [2] worked out at 22%. Besides, the HCT in series [2] (title says % control) was found to be 7%. The substance further yielded an MCH in series [2] (title says % control) of 3. In series [2] (title says % control), this substance returned an MCHC of 5%. For the same substance, in series [2] (title says % control), the MCV worked out at 7. Besides, the ALT in series [3] (day 22) is on record as 36 IU/L; in series [3] (day 43), 35 IU/L; in series [3] (day 64), 42 IU/L; in series [3] (day 85) it was 116 IU/L; in series [3] (day −14), 61 IU/L. The AST was 44 IU/L in series [3] (day 22); 42 IU/L in series [3] (day 43); 37 IU/L in series [3] (day 64); 50 IU/L in series [3] (day 85); 114 IU/L in series [3] (day −14). The Bilirubin is 0.20 mg/dL in series [3] (day 22); 0.21 mg/dL in series [3] (day 43); 0.14 mg/dL in series [3] (day 64); 0.12 mg/dL in series [3] (day 85); 0.26 mg/dL in series [3] (day −14). The platelet aggregation in the series on platelet aggregation (day 15 (with ADP)) was 16 Ohms; in the series with platelet aggregation (day 36 (with ADP)) it was 13.9 Ohms; with platelet aggregation (day 43 (with collagen)), 19 Ohms; in the series on platelet aggregation (day 57 (with ADP)), 18 Ohms; in the series with platelet aggregation (day 64 (with collagen)) it was 18 Ohms; with platelet aggregation (day 78 (with ADP)) it was 18 Ohms. The platelet aggregation with platelet aggregation (day 85 (with ADP)) was 22 Ohms; in the series on platelet aggregation (day 85 (with collagen)) it was 24 Ohms; in the series with platelet aggregation (day −5 (with collagen)), 21 Ohms.

For the substance “ISIS 445522: 5-8-5 or 6-8-6 MOE microwalk gapmer (Table 44) (antisense eG*e[5mC]*eA*e[5mC]*eA*dG*dT*dT*dT*d[5mC]*dT*dG*dG*e[5mC]*eA*eG*eG*e[5mC])”, in series [4], the ALT is on record as 51 IU/L, the AST was found to be 110 IU/L, the Albumin came out at 3.4 and the Bilirubin stood at 0.19 mg/dL.

With “ISIS 445531: 5-8-5 or 6-8-6 MOE microwalk gapmer (Table 44) (antisense eG*eG*e[5mC]*eA*eT*dT*dG*dG*dT*dG*d[5mC]*dA*d[5mC]*eA*eG*eT*eT*eT)”, in series [4], the ALT stood at 60 IU/L, the AST is 127 IU/L, the Albumin stood at 3.2 and the Bilirubin worked out at 0.16 mg/dL.

For “ISIS 449707: 3-8-3, 4-8-4, 2-10-2, 3-10-3 or 4-10-4 MOE microwalk gapmer (Table 46) (antisense e[5mC]*eA*e[5mC]*eA*dG*dT*dT*dT*d[5mC]*dT*dG*dG*e[5mC]*eA*eG*eG)”, in series [5], the “Change in Kidney weight” value is on record as −5%, the “Change in Liver weight” value is reported as “+11%” and the “Change in Spleen weight” value is recorded as “+63%”.

Consider “ISIS 449708: 3-8-3, 4-8-4, 2-10-2, 3-10-3 or 4-10-4 MOE microwalk gapmer (Table 46) (antisense eA*e[5mC]*eA*dG*dT*dT*dT*d[5mC]*dT*dG*dG*e[5mC]*eA*eG)”, for which, in series [5], the “Change in Kidney weight” value worked out at 0%, the “Change in Liver weight” value is recorded as “+17%” and the “Change in Spleen weight” value was “+66%”.

On to “ISIS 449709: 3-8-3, 4-8-4, 2-10-2, 3-10-3 or 4-10-4 MOE microwalk gapmer (Table 46) (antisense eG*e[5mC]*eA*e[5mC]*dA*dG*dT*dT*dT*d[5mC]*dT*dG*dG*d[5mC]*eA*eG*eG*e[5mC])”, for which, in series [5], the “Change in Kidney weight” value is listed as −14%, the “Change in Liver weight” value was “+15%” and the “Change in Spleen weight” value is listed as “+62%”.

As for “ISIS 449710: 3-8-3, 4-8-4, 2-10-2, 3-10-3 or 4-10-4 MOE microwalk gapmer (Table 46) (antisense e[5mC]*eA*e[5mC]*dA*dG*dT*dT*dT*d[5mC]*dT*dG*dG*d[5mC]*eA*eG*eG)”, in series [5], the “Change in Kidney weight” value was −7%, the “Change in Liver weight” value is given as “+6%” and the “Change in Spleen weight” value is listed as “+43%”.

Regarding “ISIS 449711: 3-8-3, 4-8-4, 2-10-2, 3-10-3 or 4-10-4 MOE microwalk gapmer (Table 46) (antisense eA*e[5mC]*dA*dG*dT*dT*dT*d[5mC]*dT*dG*dG*d[5mC]*eA*eG)”, in series [5], the “Change in Kidney weight” value is −12%, the “Change in Liver weight” value is “+18%” and the “Change in Spleen weight” value is listed as “+63%”.

For the origin of these results see patent publication US20230263822A1, “MODULATION OF FACTOR 11 EXPRESSION” (Ionis Pharmaceuticals, Inc., priority 2008, published 2023).
